Test results from patent US20140005163A1 (NOVARTIS AG, priority 2010, published 2014).

How the values were obtained:
PI3K delta = target: T1, PI3K delta (Homo sapiens, UniProt O00329); test: PI3K delta kinase assay (Kinase-Glo luminescence); type: biochemical
T1 construct: for the full-length p110-d subunit are generated and fused by overlapping PCR; p85(iSH2) fusion partner (see partner chain) (N); His tag (C); made in house; host or cells: baculovirus; Tn5 (Trichoplusia ni) or TiniPro insect cells
Summary of the method: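 ATP depletion was measured by Kinase-Glo luminescence after a 60-minute room-temperature reaction containing 1 μM ATP, 10 μg/mL PI and 10 nM His-tagged p85(iSH2)-linker-p110δ (BV-1060). Buffer: Tris pH 7.5, 3 mM MgCl2, 50 mM NaCl, 0.05% CHAPS, 1 mM DTT. IC50 values came from four-parameter fits over eight concentrations.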

[1] = test system: PKB Ser473 phosphorylation in Rat1-myr-HA-p110 beta cells; test: Reverse protein array assay, PKB Ser473 phosphorylation in Rat1-myr-p110 beta cells; type: cell-based; conditions: 0.5 h, pAkt Ser473, 30 minutes incubation, read-out: p-PKB IC50
Summary of the method: (§1)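 Cells: Rat1-myr-HA-p110 alpha/beta/delta, seeded ≥20 h. Lysis on ice 10 min; reverse-phase protein array, 4 lysate dilutions; fluorescence read, relative intensity.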

[2] = test system: PKB Ser473 phosphorylation in Rat1-myr-HA-p110 delta cells; test: Reverse protein array assay, PKB Ser473 phosphorylation in Rat1-myr-p110 delta cells; type: cell-based; conditions: read-out: p-PKB IC50
Summary of the method: as §1

T1 sequence (O00329 with tags, fused parts or gaps limits assumed): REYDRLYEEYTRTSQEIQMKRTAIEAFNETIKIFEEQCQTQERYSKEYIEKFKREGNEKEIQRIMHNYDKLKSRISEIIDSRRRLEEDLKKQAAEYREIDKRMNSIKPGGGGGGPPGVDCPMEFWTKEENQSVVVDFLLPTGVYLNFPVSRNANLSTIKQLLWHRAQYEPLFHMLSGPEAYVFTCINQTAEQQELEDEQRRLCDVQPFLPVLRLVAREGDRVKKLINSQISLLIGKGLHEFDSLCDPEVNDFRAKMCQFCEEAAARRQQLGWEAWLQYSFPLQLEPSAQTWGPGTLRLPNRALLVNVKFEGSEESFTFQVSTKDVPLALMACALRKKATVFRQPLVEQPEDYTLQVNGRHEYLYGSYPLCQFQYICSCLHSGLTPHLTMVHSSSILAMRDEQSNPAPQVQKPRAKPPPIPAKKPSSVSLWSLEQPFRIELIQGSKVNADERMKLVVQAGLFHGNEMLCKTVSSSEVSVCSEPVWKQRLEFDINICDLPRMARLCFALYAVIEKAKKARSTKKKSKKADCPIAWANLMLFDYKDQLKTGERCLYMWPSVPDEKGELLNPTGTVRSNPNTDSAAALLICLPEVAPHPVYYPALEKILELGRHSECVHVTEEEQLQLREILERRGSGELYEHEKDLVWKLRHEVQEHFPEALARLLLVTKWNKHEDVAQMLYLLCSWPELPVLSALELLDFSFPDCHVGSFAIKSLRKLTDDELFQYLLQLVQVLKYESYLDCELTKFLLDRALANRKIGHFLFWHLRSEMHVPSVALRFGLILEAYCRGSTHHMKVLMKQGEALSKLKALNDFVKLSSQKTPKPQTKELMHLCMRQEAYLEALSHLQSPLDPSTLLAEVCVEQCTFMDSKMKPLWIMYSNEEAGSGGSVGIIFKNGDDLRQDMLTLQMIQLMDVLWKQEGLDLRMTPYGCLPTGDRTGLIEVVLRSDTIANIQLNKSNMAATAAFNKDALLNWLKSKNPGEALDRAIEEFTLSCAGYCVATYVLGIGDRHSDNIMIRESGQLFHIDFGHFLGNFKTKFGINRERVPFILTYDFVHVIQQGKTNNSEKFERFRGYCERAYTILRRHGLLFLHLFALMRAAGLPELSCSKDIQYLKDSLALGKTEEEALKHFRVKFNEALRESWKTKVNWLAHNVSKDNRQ

Row | SMILES | IC50 (PI3K delta) | IC50 [1] | IC50 [2]
1 | COCCNC(=O)c1cc(-c2ccc3ncc4c(c3c2)n(-c2cn(C)nc2C)c(=O)n4C)cnc1N [Example 226, 2-Amino-5-[1-(1,3-dimethyl-1H-pyrazol-4-yl)-3-methyl-2-oxo-2,3-dihydro-1H-imidazo[4,5-c]quinolin-8-yl]-N-(2-methoxy-ethyl)-nicotinamide] | 21 nM | 457 nM | 433 nM
2 | COc1ncc(-c2ccc3ncc4c(c3c2)n(-c2cn(C(C)C)nc2C)c(=O)n4C)c(OC)n1 [Example 234.3, 8-(2,4-Dimethoxy-pyrimidin-5-yl)-1-(1-isopropyl-3-methyl-1H-pyrazol-4-yl)-3-methyl-1,3-dihydro-imidazo[4,5-c]quinolin-2-one] | < 3 nM | 15 nM | 30 nM
3 | CCOC(C)(C)c1cncc(-c2ccc3ncc4c(c3c2)n(-c2cn(C)nc2C)c(=O)n4C)c1 [Example 240, 1-(1,3-Dimethyl-1H-pyrazol-4-yl)-8-[5-(1-ethoxy-1-methyl-ethyl)-pyridin-3-yl]-3-methyl-1,3-dihydro-imidazo[4,5-c]quinolin-2-one] | < 3 nM | 128 nM | 131 nM
4 | CCN(CC)C(=O)Cn1cc(-n2c(=O)n(C)c3cnc4ccc(-c5cnc(N6CCCC6)nc5)cc4c32)c(C)n1 [Example 247.1, N,N-Diethyl-2-{3-methyl-4-[3-methyl-2-oxo-8-(2-pyrrolidin-1-yl-pyrimidin-5-yl)-2,3-dihydro-imidazo[4,5-c]quinolin-1-yl]-pyrazol-1-yl}-acetamide] | 777 nM | 52 nM | 157 nM

The remaining compounds from weak to strong by IC50 (PI3K delta), led by results:

Row | IC50 (PI3K delta) | IC50 [1] | IC50 [2] | SMILES
5 | 473 nM | 116 nM | 327 nM | Cc1nn(C)cc1-n1c(=O)n(C)c2cnc3ccc(-c4cnc(CO)c(Cl)c4)cc3c21 [Example 238, 8-(5-Chloro-6-hydroxymethyl-pyridin-3-yl)-1-(1,3-dimethyl-1H-pyrazol-4-yl)-3-methyl-1,3-dihydro-imidazo[4,5-c]quinolin-2-one]
6 | 10 nM | 294 nM | 837 nM | C=CCn1c(=O)n(-c2cn(C)nc2C)c2c3cc(-c4cncc(N)c4)ccc3ncc21 [Example 246, 3-Allyl-8-(5-amino-pyridin-3-yl)-1-(1,3-dimethyl-1H-pyrazol-4-yl)-1,3-dihydro-imidazo[4,5-c]quinolin-2-one]
